In US4689321A, “Oxo propenyl nucleosides and nucleoside related analogs” (The Research Foundation of State University of New York, priority 1984, dated 1987):

Columns and labels:
murine leukemia = murine leukemia model, ascites cells implanted i.p. in mice (Table I); type: in vivo, murine (CFD1+ mice); settings: for Effect MST % T/C: >125 considered significant; for MST (median survival time): control 6.5
Excerpt: Tumor Inoculum: 10^6 ascites cells implanted i.p.
Evaluation: MST = median survival time
Effect: % T/C = (MST treated/MST control) × 100.

[1] = test system: DNA synthesis in HeLa cells; experiment: inhibition of DNA synthesis in HeLa cells; type: cell-based; settings: Homo sapiens, 1 h, 60 min
Method: (§1) Effects of Inhibitors on Synthesis of DNA and TTP in HeLa Cells
^a Measured, over a period of 60 min., as described in the Legend to […]

DNA synthesis = experiment: cytotoxicity and effect on DNA, RNA and protein synthesis (Fig. I); type: cell-based
B-16 melanoma = experiment: tumor cell growth in culture, B-16 melanoma; type: cell-based; settings: Mus musculus, B16, testing at Roswell Park Memorial Institute
Excerpt: (§2) on Tumor Cell Growth in Culture
(§3) ^a Testing performed at Roswell Park Memorial Institute. See proposal
(§4) for methodology and references.

Lewis lung carcinoma = experiment: tumor cell growth in culture, Lewis lung carcinoma; type: cell-based; settings: testing at Roswell Park Memorial Institute
Excerpt: as §2, §3, §4

[2] = test system: TTP formation in HeLa cells; experiment: inhibition of TTP formation in HeLa cells; type: cell-based; settings: Homo sapiens, 0.5 h, 30 min
Method: as §1
^b HeLa cells were suspended for 30 min. in 2 ml. of minimal essentia
media containing 25 uCi of ^3 H--thymidine. Cells were lysed, carrier
nucleotides added and ^3 H--TTP isolated by thin layer chromatography

[3] = test system: DLD-1 human colon carcinoma; experiment: tumor cell growth in culture, DLD-1 human colon carcinoma; type: cell-based; settings: testing at Brown University
Excerpt: as §2
^b Testing performed at Brown University. Cell lines and methodology

L-1210 Leukemia = experiment: tumor cell growth in culture, L-1210 Leukemia; type: cell-based; settings: Mus musculus, L1210, testing at Roswell Park Memorial Institute
Excerpt: as §2, §3, §4

[4] = 2 mg/kg/inj IP, schedule qd 1 5
[5] = 4 mg/kg/inj IP, schedule qd 1 5
[6] = 8 mg/kg/inj IP, schedule qd 1 5
[7] = 16 mg/kg/inj IP, schedule qd 1 5

## Cc1cn([C@H]2C[C@H](O)[C@@H](CO)O2)c(=O)n(C=CC=O)c1=O [XX-336, 3-(thymidin-3-yl)-prop-2-enal]
Murine leukemia; [4]
  Effect MST % T/C: 123%
  MST (median survival time): 8.0 days
Murine leukemia; [5]
  Effect MST % T/C: 123%
  MST (median survival time): 8.0 days
Murine leukemia; 8 mg/kg/inj IP, schedule d.1
  Effect MST % T/C: 154%
  MST (median survival time): 10.0 days
Murine leukemia; [6]
  Effect MST % T/C: 146%
  MST (median survival time): 9.5 days
Murine leukemia; 16 mg/kg/inj IP, schedule d.1
  Effect MST % T/C: 131%
  MST (median survival time): 8.5 days
Murine leukemia; [7]
  Effect MST % T/C: 146%
  MST (median survival time): 9.5 days
Murine leukemia; 32 mg/kg/inj IP, schedule d.1
  Effect MST % T/C: 123%
  MST (median survival time): 8.0 days
[1]; 0.1 μM
  inhibition at 0.1 µM: 6%
[1]; 0.3 μM
  inhibition at 0.3 µM: 38%
[1]; 1.0 μM
  inhibition at 1 µM: 70%
[1]; 2.0 μM
  inhibition at 2 µM: 88%
[1]; 20.0 μM
  inhibition at 20 µM: 100%
DNA synthesis
  cytotoxicity associated with inhibition of DNA synthesis: associated dominantly with the inhibition of DNA synthesis
B-16 melanoma
  IC50: 4.2 µM
Lewis lung carcinoma
  IC50: 5.9 µM
[2]; 0.1 μM
  inhibition at 0.1 µM: 6%
[2]; 0.3 μM
  inhibition at 0.3 µM: 50%
[2]; 1.0 μM
  inhibition at 1 µM: 75%
[2]; 2.0 μM
  inhibition at 2 µM: 85%
[2]; 20.0 μM
  inhibition at 20 µM: 95%
[3]
  IC50: 5 µM
L-1210 Leukemia
  IC50: 1.6 µM
